In US6476076B1 (priority 1999, dated 2002):
Several values for one entry are separate records, joined by “and”; a condition that tells them apart may be missing. Equal entries are not always repeated. Where two headings read alike, the source gives them in different places.

Tests used:
[1] = tested on: PBQ-induced writhing in ICR mice; test: animal or person; format: in vivo, mouse; conditions: for Relative Potency (Writhing Test) / Writhing Test ED50: mouse, in vivo; for Writhing Test ED50 / ED50: ip; for ED50: Mus musculus, read-out: Writhing Test ED50
[2] = target: T1, CAP-activated channels in cultured neonatal rat dorsal root ganglion (DRG) neurons (Rattus norvegicus, UniProt O35433); format: cell-based; set-up: key: + = CAP; ++ = 10 CAP; +++ = 100 CAP
T1 construct: extracellular application of the compounds to cultured neonatal rat dorsal root ganglion (DRG) neurons; endogenous in cells; host or cells: primary cultured DRG neurons from 1 or 2 day old neonatal rats
T1 sequence (O35433 whole entry): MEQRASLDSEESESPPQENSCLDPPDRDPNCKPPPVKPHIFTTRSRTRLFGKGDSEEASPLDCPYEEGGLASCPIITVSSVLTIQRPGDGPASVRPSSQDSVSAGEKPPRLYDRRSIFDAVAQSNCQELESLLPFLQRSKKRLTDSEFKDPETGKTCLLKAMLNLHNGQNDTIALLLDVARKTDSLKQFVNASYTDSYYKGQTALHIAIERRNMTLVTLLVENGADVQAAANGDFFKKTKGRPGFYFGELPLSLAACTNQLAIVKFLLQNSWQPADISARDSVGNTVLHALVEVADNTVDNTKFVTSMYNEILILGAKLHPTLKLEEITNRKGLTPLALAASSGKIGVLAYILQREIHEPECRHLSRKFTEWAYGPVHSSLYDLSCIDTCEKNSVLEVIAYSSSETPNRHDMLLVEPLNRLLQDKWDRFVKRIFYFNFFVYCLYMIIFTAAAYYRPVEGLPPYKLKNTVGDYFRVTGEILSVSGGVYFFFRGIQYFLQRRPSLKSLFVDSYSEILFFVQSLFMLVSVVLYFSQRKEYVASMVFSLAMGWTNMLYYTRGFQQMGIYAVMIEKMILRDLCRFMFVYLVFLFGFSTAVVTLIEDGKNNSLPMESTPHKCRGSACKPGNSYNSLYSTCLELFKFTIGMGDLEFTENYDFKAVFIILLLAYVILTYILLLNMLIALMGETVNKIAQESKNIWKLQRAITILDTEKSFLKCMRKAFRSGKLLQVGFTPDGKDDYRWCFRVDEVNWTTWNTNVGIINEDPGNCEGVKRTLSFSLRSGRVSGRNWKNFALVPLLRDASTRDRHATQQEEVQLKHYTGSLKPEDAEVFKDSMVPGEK

[3] = target: T2, vanilloid receptor (rat spinal cord membrane preparations) (Rattus norvegicus, UniProt O35433); test: biochemical; format: binding
T2 construct: determined on membrane preparations from rat spinal cord; from tissue; host or cells: rat spinal cord membranes
T2 sequence (O35433 whole entry): as above

[4] = tested on: TPA-induced ear edema in ICR mice; conditions: mouse, in vivo
[5] = tested on: rat eye (eye-wiping response); conditions: in vivo
DRG neurons = test: cells; format: cell-based; conditions: Rattus norvegicus, DRG neuron, 10 min, read-out: 45Ca Influx EC50
[6] = tested on: acetic acid-induced writhing in ICR mice; test: animal or person; format: in vivo, mouse; conditions: Mus musculus, ip, read-out: Writhing Test ED50

Row | Compound | Relative Potency (Writhing Test) [1] | Writhing Test ED50 [1] [µg/kg] | Activations [2] | Ear Edema Assay ID50 [4] [μg/ear] | Relative Potency (Ear Edema Assay) [4] | other results
1 | 2-(3,4-Dimethylbenzyl)-3-{[(4-hydroxy-3-methoxybenzyl)amino]carbothioyl}propyl 3,4-Dimethylbenzoate [7b-VI] | 150 | 2 | +++ | 50 | 0.06 | Ki ([3]; read-out: Affinities (Ki)): 184 nM
2 | 2-(3,4-Dimethylbenzyl)-3-{[(4-hydroxy-3-methoxybenzyl)amino]carbothioyl}propyl Pivalate [7b-I] | 600 | 0.5 | ++ | 18 | 0.17 | MPP: moderate pain-producing potency [5]: 0.002%; RPP: relative pain-producing potency [5]: 15; times more potent than CAP (receptor binding) [3]: ca. 280 times
3 | 2-(3,4-Dimethylbenzyl)-3-{[(4-hydroxy-3-methoxybenzyl)amino]carbothioyl}propyl benzoate [7b-V] | 43 | 7 | ++ | 50 | 0.06 | Ki ([3]; read-out: Affinities (Ki)): 409 nM
4 | 2-(4-Chlorobenzyl)-3-{[(4-hydroxy-3-methoxybenzyl)amino]carbothioyl}propyl Benzoate [7c-V] | 25 | 12 | ++ | 17 | 0.18 | 
5 | 2-(4-Chlorobenzyl)-3-{[(4-hydroxy-3-methoxybenzyl)amino]carbothioyl}propyl Pivalate [7c-I] | 60 | 5 | ++ | 22 | 0.14 | Ki ([3]; read-out: Affinities (Ki)): 54.4 nM
6 | 2-(4-t-Butylbenzyl)-3-{[(4-hydroxy-3-methoxybenzyl)amino]carbothioyl}propyl Benzoate [7d-V] | 200 | 1.5 | ++ | 30 | 0.1 | Ki ([3]; read-out: Affinities (Ki)): 60.2 nM
7 | 2-(4-t-Butylbenzyl)-3-{[(4-hydroxy-3-methoxybenzyl)amino]carbothioyl}propyl Pivalate [7d-I] | 300 | 1 | ++ | 5 | 0.6 | % Reduction of response to 0.001% capsaicin [5]: 0 (0.1) %; MPP: moderate pain-producing potency [5]: 0.003%; RPP: relative pain-producing potency [5]: 10; times more potent than CAP (receptor binding) [3]: ~490 times
8 | 2-Benzyl-3-{[(4-hydroxy-3-methoxybenzyl)amino]carbothioyl}propyl Benzoate [7a-V] | 15 | 20 | ++ | 20 | 0.15 | % Reduction of response to 0.001% capsaicin [5]: 0 (0.1) %
9 | 2-Benzyl-3-{[(4-hydroxy-3-methoxybenzyl)amino]carbothioyl}propyl Hexanoate [7a-III] | 60 | 5 | ++ |  |  | Ki ([3]; read-out: Affinities (Ki)): 632 nM
10 | 2-Benzyl-3-{[(4-hydroxy-3-methoxybenzyl)amino]carbothioyl}propyl Pivalate [7a-I] | 150 | 2 | +++ | 25 | 0.12 | 
11 | 2-Benzyl-3-{[(4-hydroxy-3-methoxybenzyl)amino]carbothioyl}propyl Stearate [7a-IV] | 15 | 20 | + |  |  | Ki ([3]; read-out: Affinities (Ki)): 1870 nM
12 | COc1cc(CNC(=S)NCC(COC(=O)C(C)C)Cc2ccccc2)ccc1O (stereo not drawn) [7a-II, 2-Benzyl-3-{[(4-hydroxy-3-methoxybenzyl)amino]carbothioyl}propyl 2-Methyl Propanoate] | 20 |  | +++ |  |  | ED50 [1]: 0.015 mg/kg; Ki [3]: 133 nM
13 | COCOc1ccc(CNC(=S)NCC(COC(=O)C(C)(C)C)Cc2ccc(C)c(C)c2)cc1OC (stereo not drawn) [7b-Ia] |  |  |  |  |  | Ki [3]: 876 nM
14 | COc1cc(CNC(=S)NCC(COCc2ccccc2)Cc2ccccc2)ccc1O (stereo not drawn) [9a, N-[2-Benzyl-3-(benzyloxy)propyl]-N′-(4-hydroxy-3-methoxybenzyl)thiourea] |  |  | ++ |  |  | Ki [3]: 148 nM
15 | COc1cc(CNC(=S)NCC(COCc2ccccc2)Cc2ccc(Cl)cc2)ccc1O (stereo not drawn) [9c, N-[3-Benzyloxy-2-(4-chlorobenzyl)propyl]-N′-(4-hydroxy-3-methoxybenzyl)thiourea] |  |  | ++ |  |  | Ki [3]: 659 nM
16 | COc1cc(CNC(=S)NC[C@H](COC(=O)C(C)(C)C)Cc2ccccc2)ccc1O [(R)-7a-I] | 38 |  | +++ |  |  | ED50 [1]: 0.008 mg/kg; Ki [3]: 18.4 nM
17 | CC(=O)Oc1ccccc1C(=O)O [Aspirin, reference compound] | 0.086 |  |  |  |  | ED50 [1]: 3.5 mg/kg
18 | COc1cc(CNC(=O)CCCC/C=C/C(C)C)ccc1O [Capsaicin, reference compound] |  |  |  | 3 |  | ED50 [1]: 0.3 mg/kg; EC50 (DRG neurons): 435 nM; % Reduction of response to 0.001% capsaicin [5]: 55 (0.1) % and 35 (0.01) %; MPP: moderate pain-producing potency [5]: 0.0003%; response to 0.001% CAP challenge 6 h posttreatment (in words) [5]: attenuated eye-wiping response; antiinflammatory activity in the TPA ear edema assay (in words) [4]: strong anti-edema activity
19 | COc1ccc2c(c1)c(CC(=O)O)c(C)n2C(=O)c1ccc(Cl)cc1 [Indomethacin, reference compound] | 0.75 |  |  |  |  | ED50 [1]: 0.4 mg/kg
20 | CN1CC[C@]23c4c5ccc(O)c4O[C@H]2[C@@H](O)C=C[C@H]3[C@H]1C5 [Morphine, reference compound] | 0.3 |  |  |  |  | ED50 [1]: 1 mg/kg
21 | CCCCCCCC/C=C\CCCCCCCC(=O)NCc1ccc(O)c(OC)c1 [Olvanil, reference compound] | 10 |  |  | 30 | 0.1 | ED50 [1]: 0.03 mg/kg; % Reduction of response to 0.001% capsaicin [5]: 0.1%; MPP: moderate pain-producing potency [5]: WP^c; ED50 [6]: 0.0174 mg/kg; antiinflammatory activity in the TPA ear edema assay (in words) [4]: weak topical activity
22 | C=C(C)[C@]12C[C@@H](C)[C@@]34O[C@](Cc5ccccc5)(O[C@@H]1[C@@H]3C=C(COC(=O)Cc1ccc(O)c(OC)c1)C[C@]1(O)C(=O)C(C)=C[C@@H]41)O2 [RTX, Resiniferatoxin, reference compound] | 30,000 |  |  | 0.002 | 1,500 | MPP: moderate pain-producing potency [5]: 0.0001%; RPP: relative pain-producing potency [5]: 300; pungency, fold more potent than CAP [5]: 3 fold; Ki [3]: 0.023 nM
23 | COCOc1ccc(CNC(=S)NCC(COC(=O)C(C)(C)C)Cc2ccccc2)cc1OC (stereo not drawn) [compound 10] |  |  | ++ |  |  | Ki [3]: 146 nM
24 | (S)-2-Benzyl-3-{[(4-hydroxy-3-methoxybenzyl)amino]carbothioyl}propyl Pivalate [(S)-7a-I] | 33 | 9 | ++ |  |  | 
